# Test results reported in paper PMC3130785, “Small Compound 6-O-Angeloylplenolin Induces Mitotic Arrest and Exhibits Therapeutic Potentials in Multiple Myeloma” (PLoS ONE, 2011).
# Tested on: pIκBα and pP65
# Test: Western blotting, TNF-α stimulation
# Format: cell-based, human
# Details: MM.1S; 6-OAP 5 µM 12 h; TNF-α 5 ng/ml
# Method: Cell pellets were lysed in RIPA buffer containing 50 mM Tris pH 8.0, 150 mM NaCl, 0.1% SDS, 0.5% deoxycholate, 1% NP-40, 1 mM DTT, 1 mM NaF, 1 mM sodium vanadate, and protease inhibitors cocktail (Sigma). For immunoprecipitations, cells were lysed on ice for 15 minutes in RIPA buffer. Lysates were centrifuged. The supernatant was incubated with indicated antibodies overnight, after which protein A/G Plus beads (Santa Cruz Biotechnology) were added and incubated for 3 h. The beads were washed 4 times in RIPA buffer. Then the beads were resuspended in 1× sample buffer and boiled for 3 min. Protein extracts were quantitated and loaded on 8% to 12% sodium dodecyl sulfate polyacrylamide gel, electrophoresed, and transferred to a nitrocellulose membrane (Whatman). The membrane was incubated with primary antibody, washed, and incubated with horseradish peroxidase (HRP)–conjugated secondary antibody (Pierce). Detection was performed by using a chemiluminescent western detection kit (Cell Signaling). […]
# Figure 5 6-OAP overcomes the protective effects of IL-6, IGF-I and BMSCs on MM cells. […] Cell proliferation was assessed by MTT assay. […] Cell proliferation was assessed by MTT assay. *p<.01,** p<.05. […]
smiles,measurement,value
"CC=C(C)C(=O)OC1C2C(CC(C)C3C=CC(=O)C31C)OC(=O)C2C (stereo not shown) [6-OAP, 6-O-angeloylplenolin]",TNF-α-induced pIκBα and pP65,inhibited phosphorylation
